We go through 25 compounds from ChEMBL document CHEMBL1135517, “N(6)-alkyl-2-alkynyl derivatives of adenosine as potent and selective agonists at the human adenosine A(3) receptor and a starting point for searching A(2B) ligands” (J Med Chem, 2002).

The structures appear in SMILES notation.

For one test, the target named is T1, Adenosine receptor A1 (Homo sapiens, UniProt P30542).
T1 sequence (P30542 whole entry): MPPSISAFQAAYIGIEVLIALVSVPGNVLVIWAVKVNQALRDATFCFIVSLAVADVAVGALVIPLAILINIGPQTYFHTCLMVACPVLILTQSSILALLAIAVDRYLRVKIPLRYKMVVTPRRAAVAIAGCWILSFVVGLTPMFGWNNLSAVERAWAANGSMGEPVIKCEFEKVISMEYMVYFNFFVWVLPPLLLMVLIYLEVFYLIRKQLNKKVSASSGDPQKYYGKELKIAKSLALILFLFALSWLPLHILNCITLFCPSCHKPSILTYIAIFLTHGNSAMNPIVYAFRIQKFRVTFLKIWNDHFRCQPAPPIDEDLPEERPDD
Put plainly: Binding affinity against Human recombinant Adenosine A1 receptor stably transfected in CHO cells using [3H]CCPA as radioligand. The test is classed as cell-based.

For the next test, the target named is Adenosine receptor A2a (Homo sapiens, UniProt P29274). In words: Binding affinity against Human recombinant Adenosine A2A receptor stably transfected in CHO cells using [3H]NECA as radioligand. The test is classed as cell-based.
Sequence of Adenosine receptor A2a (P29274 whole entry): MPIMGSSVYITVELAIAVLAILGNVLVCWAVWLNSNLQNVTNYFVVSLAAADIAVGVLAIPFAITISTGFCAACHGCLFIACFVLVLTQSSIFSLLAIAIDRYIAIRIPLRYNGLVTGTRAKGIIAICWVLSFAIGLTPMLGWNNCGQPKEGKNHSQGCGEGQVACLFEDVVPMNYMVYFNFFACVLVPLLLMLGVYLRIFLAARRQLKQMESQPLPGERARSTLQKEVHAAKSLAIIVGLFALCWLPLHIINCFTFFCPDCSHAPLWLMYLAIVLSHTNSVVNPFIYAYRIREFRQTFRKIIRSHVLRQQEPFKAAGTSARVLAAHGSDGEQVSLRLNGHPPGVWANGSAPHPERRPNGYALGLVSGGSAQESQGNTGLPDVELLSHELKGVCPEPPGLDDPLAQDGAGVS
A further test addresses T2, Adenosine receptor A3 (Homo sapiens, UniProt P0DMS8).
T2 sequence (P0DMS8 whole entry): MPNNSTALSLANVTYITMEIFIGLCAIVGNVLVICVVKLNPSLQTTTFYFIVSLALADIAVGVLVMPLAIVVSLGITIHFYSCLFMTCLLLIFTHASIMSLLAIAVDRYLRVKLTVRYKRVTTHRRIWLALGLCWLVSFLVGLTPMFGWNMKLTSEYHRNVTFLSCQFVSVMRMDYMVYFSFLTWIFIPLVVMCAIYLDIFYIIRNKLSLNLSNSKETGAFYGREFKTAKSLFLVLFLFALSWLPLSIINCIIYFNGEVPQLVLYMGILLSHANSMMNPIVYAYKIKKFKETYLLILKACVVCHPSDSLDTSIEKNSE
Put plainly: Binding affinity against Human recombinant Adenosine A3 receptor stably transfected in CHO cells using [3H]NECA as radioligand. The test is classed as cell-based.

Another test concerns the target T3, Adenosine receptor A2b (Homo sapiens, UniProt P29275).
T3 sequence (P29275 whole entry): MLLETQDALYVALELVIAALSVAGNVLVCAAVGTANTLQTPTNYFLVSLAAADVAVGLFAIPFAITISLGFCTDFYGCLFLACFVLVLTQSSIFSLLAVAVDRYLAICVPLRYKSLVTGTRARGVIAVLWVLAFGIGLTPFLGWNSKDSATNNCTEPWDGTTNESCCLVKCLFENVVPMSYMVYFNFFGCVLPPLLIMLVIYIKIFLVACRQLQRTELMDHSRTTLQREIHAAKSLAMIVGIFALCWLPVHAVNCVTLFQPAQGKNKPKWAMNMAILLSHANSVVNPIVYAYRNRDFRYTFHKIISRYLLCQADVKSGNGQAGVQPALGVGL
In words: Receptor-stimulated activity in CHO cells stably transfected with Human recombinant Adenosine A2B receptor measuring adenylyl cyclase activity.

Consider `CNc1nc(C#CC(O)c2ccccc2)nc2c1ncn2[C@@H]1O[C@H](CO)[C@@H](O)[C@H]1O` (some centres not stated), for which the Ki (as a rule, the equilibrium dissociation constant of an inhibitor or competing ligand from its target) stood at 0.0084 µM on Adenosine receptor A1, 0.273 µM at Adenosine receptor A2a and 0.00076 µM at Adenosine receptor A3. The EC50 (commonly the concentration that produces a half-maximal response) at Adenosine receptor A2b was determined as 2.7 µM.
In the same order, the values of `CC(C)Nc1nc(C#CC(O)c2ccccc2)nc2c1ncn2[C@@H]1O[C@H](CO)[C@@H](O)[C@H]1O` (some centres not stated) are 0.0015 µM, 0.096 µM, 0.0023 µM and 6.1 µM.
In the same order, the values of `CCNc1nc(C#CC(O)c2ccccc2)nc2c1ncn2[C@@H]1O[C@H](CO)[C@@H](O)[C@H]1O` (some centres not stated) are 0.0027 µM, 0.094 µM, 0.00097 µM and 1.7 µM.
On to `Nc1nc(C#CC(O)c2ccccc2)nc2c1ncn2[C@@H]1O[C@H](CO)[C@@H](O)[C@H]1O` (some centres not stated), for which the inhibitory constant (Ki) on Adenosine receptor A1 came out at 0.00067 µM; on Adenosine receptor A2a, 0.007 µM; at Adenosine receptor A3, 0.0033 µM. Moreover, at Adenosine receptor A2b, the EC50 came out at 2.4 µM.
In the case of `CC(C)Nc1nc(C#Cc2ccccc2)nc2c1ncn2[C@@H]1O[C@H](CO)[C@@H](O)[C@H]1O`, the inhibitory constant (Ki) at Adenosine receptor A1 stood at 0.429 µM; on Adenosine receptor A2a it was 1.1 µM; on Adenosine receptor A3, 0.017 µM. The EC50 at Adenosine receptor A2b was greater than 100 µM.
For `CCNC(=O)[C@H]1O[C@@H](n2cnc3c(N)nc(C#Cc4ccccc4)nc32)[C@H](O)[C@@H]1O` the same measures were 0.56 µM, 0.62 µM, 0.0062 µM and greater than 100 µM.
In the same order, the values of `CCNC(=O)[C@H]1O[C@@H](n2cnc3c(N)nc(C#C[C@@H](O)c4ccccc4)nc32)[C@H](O)[C@@H]1O` are 0.0021 µM, 0.002 µM, 0.00075 µM and 0.22 µM.
In the same order, the values of `CCNC(=O)[C@H]1O[C@@H](n2cnc3c(N)nc(C#C[C@H](O)c4ccccc4)nc32)[C@H](O)[C@@H]1O` are 0.0019 µM, 0.039 µM, 0.0055 µM and 2.4 µM.
Consider `CCNc1nc(C#C[C@@H](O)c2ccccc2)nc2c1ncn2[C@@H]1O[C@H](CO)[C@@H](O)[C@H]1O`, for which the Ki is 0.0034 µM on Adenosine receptor A1, 0.064 µM at Adenosine receptor A2a and 0.0002 µM at Adenosine receptor A3. Further, the EC50 at Adenosine receptor A2b turned out to be 0.73 µM.
For `CC(C)Nc1nc(C#C[C@@H](O)c2ccccc2)nc2c1ncn2[C@@H]1O[C@H](CO)[C@@H](O)[C@H]1O` the same measures were 0.0017 µM, 0.043 µM, 0.0015 µM and 0.96 µM.
`CCCCC#Cc1nc(NC)c2ncn([C@@H]3O[C@H](CO)[C@@H](O)[C@H]3O)c2n1`: the Ki at Adenosine receptor A1 is 0.327 µM; on Adenosine receptor A2a, 1.23 µM; at Adenosine receptor A3, 0.0011 µM. Besides, the EC50 on Adenosine receptor A2b was 100 µM.
For `CNc1nc(C#C[C@@H](O)c2ccccc2)nc2c1ncn2[C@@H]1O[C@H](CO)[C@@H](O)[C@H]1O` the same measures were 0.0096 µM, 0.163 µM, 0.00053 µM and 2.6 µM.
In the same order, the values of `CCCCC#Cc1nc(NC(C)C)c2ncn([C@@H]3O[C@H](CO)[C@@H](O)[C@H]3O)c2n1` are 0.043 µM, 0.196 µM, 0.0097 µM and 100 µM.
Take `Nc1nc(C#C[C@@H](O)c2ccccc2)nc2c1ncn2[C@@H]1O[C@H](CO)[C@@H](O)[C@H]1O`: the Ki on Adenosine receptor A1 stood at 0.00067 µM; on Adenosine receptor A2a, 0.0018 µM; on Adenosine receptor A3 it was 0.0014 µM. The EC50 on Adenosine receptor A2b turned out to be 0.92 µM.
With `CCCCC#Cc1nc(N)c2ncn([C@@H]3O[C@H](CO)[C@@H](O)[C@H]3O)c2n1`, on Adenosine receptor A3, the Ki came to 0.0047 µM. Besides, on Adenosine receptor A2b, the concentration giving a half-maximal response (EC50) turned out to be 100 µM.
`CC(C)(C)OC(=O)C1CCCN1C[C@@H](O)[C@H](Cc1ccccc1)NC(=O)[C@H](CC(N)=O)NC(=O)OCc1ccccc1` (some centres not stated): the Ki is 0.06 µM at Adenosine receptor A1 and 0.0024 µM on Adenosine receptor A3. The EC50 at Adenosine receptor A2b was determined as 6.1 µM.
For the compound `Nc1nc(C#Cc2ccccc2)nc2c1ncn2[C@@H]1O[C@H](CO)[C@@H](O)[C@H]1O`, the results for the Ki on Adenosine receptor A1, on Adenosine receptor A2a and on Adenosine receptor A3 were 0.391 µM, 0.363 µM and 0.016 µM, respectively. In addition, the EC50 at Adenosine receptor A2b is greater than 100 µM.
For `Nc1nc(C#C[C@H](O)c2ccccc2)nc2c1ncn2[C@@H]1O[C@H](CO)[C@@H](O)[C@H]1O` the same measures were 0.00044 µM, 0.029 µM, 0.005 µM and 6.2 µM.
Turning to `CCNc1nc(C#C[C@H](O)c2ccccc2)nc2c1ncn2[C@@H]1O[C@H](CO)[C@@H](O)[C@H]1O`, the Ki on Adenosine receptor A1 worked out at 0.0022 µM; on Adenosine receptor A2a, 1.18 µM; at Adenosine receptor A3 it was 0.0014 µM. Moreover, the EC50 on Adenosine receptor A2b was 9.1 µM.
In the same order, the values of `CNc1nc(C#C[C@H](O)c2ccccc2)nc2c1ncn2[C@@H]1O[C@H](CO)[C@@H](O)[C@H]1O` are 0.0071 µM, 1.56 µM, 0.0012 µM and 100 µM.
As for `CCCCC#Cc1nc(NCC)c2ncn([C@@H]3O[C@H](CO)[C@@H](O)[C@H]3O)c2n1`, the results for the Ki on Adenosine receptor A1, at Adenosine receptor A2a and at Adenosine receptor A3 were 0.138 µM, 0.267 µM and 0.0023 µM, respectively. For the same compound, the 50% effective concentration (EC50) on Adenosine receptor A2b turned out to be 100 µM.
Regarding `CC(C)Nc1nc(C#C[C@H](O)c2ccccc2)nc2c1ncn2[C@@H]1O[C@H](CO)[C@@H](O)[C@H]1O`, the figures for the Ki on Adenosine receptor A1, on Adenosine receptor A2a and at Adenosine receptor A3 were 0.0011 µM, 0.324 µM and 0.0049 µM, respectively. Further, the EC50 on Adenosine receptor A2b stood at 8.9 µM.
In the same order, the values of `CNc1nc(C#Cc2ccccc2)nc2c1ncn2[C@@H]1O[C@H](CO)[C@@H](O)[C@H]1O` are 1.69 µM, 8.53 µM, 0.0034 µM and 100 µM.
For `CCNc1nc(C#Cc2ccccc2)nc2c1ncn2C1O[C@H](CO)[C@@H](O)[C@H]1O` (some centres not stated) the same measures were 1.18 µM, 4.45 µM, 0.0049 µM and greater than 100 µM.
Consider `CCNC(=O)[C@H]1O[C@@H](n2cnc3c(N)nc(C#CC(O)c4ccccc4)nc32)[C@H](O)[C@@H]1O` (mixture of isomers), for which the Ki was 0.0027 µM on Adenosine receptor A1, 0.0031 µM on Adenosine receptor A2a and 0.00042 µM on Adenosine receptor A3. Further, at Adenosine receptor A2b, the EC50 was found to be 1.1 µM.
